± gives the standard deviation of the averaged measurements.
What was measured:
Details in all cases: 72 h
HepG2 [1] = assay: relative viability EC50 (midpoint between 100% and the lowest measured viability); higher = less toxic
Caco-2 [2] = assay: as above
U2OS [3] = assay: as above
Vero E6 [4] = assay: as above
Calu-3 [5] = assay: as above
HepG2 [6] = assay: drug sensitivity score (DSS) for viability; higher = more toxic; extreme values may be limits of the assay
Caco-2 [7] = assay: as above
U2OS [8] = assay: as above
Vero E6 [9] = assay: as above
Calu-3 [10] = assay: as above
HepG2 [11] = assay: cell viability relative to DMSO; higher = less toxic
Caco-2 [12] = assay: as above
U2OS [13] = assay: as above
Vero E6 [14] = assay: as above
Calu-3 [15] = assay: as above

Row | Compound | relative viability EC50 (HepG2 [1]) | relative viability EC50 (Caco-2 [2]) | relative viability EC50 (U2OS [3]) | relative viability EC50 (Vero E6 [4]) | relative viability EC50 (Calu-3 [5]) | drug sensitivity score (HepG2 [6]) | drug sensitivity score (Caco-2 [7]) | drug sensitivity score (U2OS [8]) | drug sensitivity score (Vero E6 [9]) | drug sensitivity score (Calu-3 [10]) | cell viability (HepG2 [11]; 1 nM) | cell viability (HepG2 [11]; 10 nM) | cell viability (HepG2 [11]; 100 nM) | cell viability (HepG2 [11]; 1000 nM) | cell viability (HepG2 [11]; 10000 nM) | cell viability (Caco-2 [12]; 1 nM) | cell viability (Caco-2 [12]; 10 nM) | cell viability (Caco-2 [12]; 100 nM) | cell viability (Caco-2 [12]; 1000 nM) | cell viability (Caco-2 [12]; 10000 nM) | cell viability (U2OS [13]; 1 nM) | cell viability (U2OS [13]; 10 nM) | cell viability (U2OS [13]; 100 nM) | cell viability (U2OS [13]; 1000 nM) | cell viability (U2OS [13]; 10000 nM) | cell viability (Vero E6 [14]; 1 nM) | cell viability (Vero E6 [14]; 10 nM) | cell viability (Vero E6 [14]; 100 nM) | cell viability (Vero E6 [14]; 1000 nM) | cell viability (Vero E6 [14]; 10000 nM) | cell viability (Calu-3 [15]; 1 nM) | cell viability (Calu-3 [15]; 10 nM) | cell viability (Calu-3 [15]; 100 nM) | cell viability (Calu-3 [15]; 1000 nM) | cell viability (Calu-3 [15]; 10000 nM)
1 | CC(=O)Nc1cccc2c1c(Sc1ccc(Cl)cc1)c(C)n2CC(=O)O [AZD1981] | > 10 µM | > 10 µM | > 10 µM | > 10 µM | > 10 µM | 0 | 0 | 0 | 0 | 0 | 100% | 103% | 105% | 99.8% | 97.9% | 102% | 105% | 91.6% | 102% | 103% | 94.6% | 102% | 94.3% | 101% | 97.6% | 98.6% | 98.1% | 97.4% | 97.4% | 94.4% | 102% | 96% | 89.7% | 94.3% | 96.2%
2 | CCCCc1cc2ccccc2c(OCCN(C)C)n1 [dimethisoquin] | > 10 µM | > 10 µM | > 10 µM | > 10 µM | > 10 µM | 0 | 0 | 0 | 0 | 0 | 103% | 104% | 109% | 91.2% | 102% | 107% | 102% | 91.5% | 105% | 97.6% | 98.9% | 106% | 102% | 105% | 91.3% | 106% | 97.5% | 97.3% | 96.1% | 94.3% | 104% | 97.7% | 92.3% | 95.6% | 98.3%
3 | CC(C)C(=O)Nc1ccc([N+](=O)[O-])c(C(F)(F)F)c1 [flutamide] | > 10 µM | > 10 µM | > 10 µM | > 10 µM | > 10 µM | 2 | 0 | 0 | 0 | 0 | 94.5% | 107% | 96.9% | 84.2% | 90.7% | 107% | 108% | 92.1% | 116% | 85.7% | 92% | 97.2% | 94.3% | 100% | 93.8% | 106% | 89.8% | 104% | 107% | 111% | 101% | 96.2% | 99.6% | 101% | 94.9%
4 | CCc1cc2c(cc1CC)CC(NC[C@H](O)c1ccc(O)c3[nH]c(=O)ccc13)C2 [indacaterol] | > 10 µM | > 10 µM | > 10 µM | > 10 µM | > 10 µM | 0.2 | 0 | 0 | 0 | 0 | 121% | 115% | 98.4% | 115% | 81% | 89.7% | 97% | 101% | 94.8% | 96.4% | 106% | 100% | 104% | 95.6% | 95.4% | 96.8% | 94.3% | 96.8% | 96.3% | 94.2% | 112% | 94.2% | 112% | 101% | 91.5%
5 | NC/C(=C/F)CCc1ccc(F)cc1 [mofegiline] | > 10 µM | > 10 µM | > 10 µM | > 10 µM | > 10 µM | 0 | 0 | 0 | 0 | 0 | 98% | 91.5% | 87.9% | 90% | 97.4% | 89.5% | 96.7% | 85.8% | 90.4% | 92.4% | 98.6% | 99.3% | 95.7% | 96.2% | 96.3% | 92.5% | 102% | 90.5% | 91.7% | 95% | 102% | 97.7% | 102% | 104% | 88.4%
6 | CCN(CC)CCN[C@@H](C(=O)OCCC(C)C)c1ccccc1 [camylofine-chlorhydrate] | > 10 µM | > 10 µM | > 10 µM | > 10 µM | > 10 µM | 0 | 1 | 0 | 0 | 0 | 106% | 105% | 98.6% | 97.3% | 108% | 84.4% | 82% | 85.5% | 100% | 85.6% | 90.7% | 99.7% | 94.8% | 101% | 108% | 94.9% | 93% | 95.7% | 91.1% | 103% | 96.3% | 107% | 102% | 97.5% | 99%
7 | COc1ccc(-c2coc3cc(O)ccc3c2=O)cc1 [formononetin] | > 10 µM | > 10 µM | > 10 µM | > 10 µM | > 10 µM | 0 | 0 | 0 | 0 | 0 | 102% | 106% | 97.8% | 104% | 96.7% | 101% | 101% | 100% | 95.6% | 94.2% | 102% | 98% | 99.9% | 102% | 103% | 102% | 101% | 99.9% | 105% | 102% | 103% | 94.5% | 102% | 89.8% | 93.7%
8 | O=C(OCC(O)CO)c1ccccc1Nc1ccnc2c(C(F)(F)F)cccc12 (stereo not given) [floctafenine] | > 10 µM | > 10 µM | > 10 µM | > 10 µM | > 10 µM | 0 | 0 | 0 | 0 | 0.7 | 101% | 106% | 107% | 105% | 92.2% | 92.2% | 90.2% | 95.9% | 92.5% | 96.9% | 101% | 99.4% | 100% | 98.5% | 93.4% | 98.3% | 107% | 95.4% | 101% | 104% | 108% | 98.5% | 95.9% | 98.7% | 81.1%
9 | C[C@@H]1CC[C@H]2C(C)(C)[C@H]3C[C@@]12CC[C@@]3(C)O [cedrol] | > 10 µM | > 10 µM | > 10 µM | > 10 µM | > 10 µM | 0 | 0 | 0 | 0 | 0 | 97.7% | 102% | 98% | 104% | 118% | 97.5% | 88.4% | 100% | 99.4% | 104% | 99.9% | 94.5% | 101% | 97.1% | 101% | 94.5% | 96.5% | 91.2% | 94.7% | 103% | 96.9% | 97.1% | 103% | 87.7% | 102%
10 | CC(C)n1nc(-c2ccc3oc(N)nc3c2)c2c(N)ncnc21 [MLN0128] | 0.0449 µM | 0.0309 µM | 0.049 µM | 0.0855 µM | 0.0095 µM | 24.6 | 23.2 | 24.4 | 19.7 | 27.5 | 106% | 91.9% | 32.4% | 26.6% | 12.9% | 102% | 72% | 45.2% | 26.1% | 20.1% | 100% | 92.1% | 35% | 18.4% | 12% | 97.9% | 93.5% | 48.7% | 35.6% | 16.5% | 88.6% | 61.2% | 31.5% | 28.4% | 22.8%
11 | O=C(NCCCN1CCOCC1)c1cnn2c(-c3ccccc3)cc(-c3ccccc3)nc12 [reversan] | > 10 µM | > 10 µM | > 10 µM | > 10 µM | > 10 µM | 0 | 1.8 | 0.2 | 0.3 | 2 | 91.7% | 95.6% | 92.6% | 102% | 93.3% | 104% | 97% | 92.2% | 88.8% | 75.6% | 103% | 103% | 97.5% | 99.5% | 85.8% | 97.8% | 100% | 103% | 103% | 82.6% | 105% | 101% | 107% | 91.8% | 75.4%
12 | CCCCNc1cc(C(=O)O)cc(S(N)(=O)=O)c1Oc1ccccc1 [bumetanide] | > 10 µM | > 10 µM | > 10 µM | > 10 µM | > 10 µM | 0 | 0 | 0 | 0 | 0 | 103% | 98.5% | 104% | 107% | 94.6% | 90.2% | 103% | 103% | 94.1% | 96.7% | 97.9% | 101% | 98.9% | 99.1% | 102% | 117% | 108% | 107% | 95.6% | 99% | 95% | 93.1% | 104% | 95.4% | 95.1%
13 | C[C@H]1C[C@H]2[C@@H]3CCC4=CC(=O)C=C[C@]4(C)[C@@]3(F)[C@@H](O)C[C@]2(C)[C@@]1(O)C(=O)CO [betamethasone] | > 10 µM | > 10 µM | > 10 µM | > 10 µM | > 10 µM | 1.3 ± 1.7 | 0.25 ± 0.35 | 0 | 0.1 ± 0.14 | 0 | 101 ± 4.1% | 97 ± 4.6% | 99.4 ± 11% | 90.2 ± 15% | 89.7 ± 4.4% | 101 ± 2.2% | 92.85 ± 0.49% | 84.5 ± 5.2% | 99.1 ± 5.8% | 92.9 ± 12% | 99.6 ± 3.8% | 101 ± 1.3% | 94.5 ± 2.9% | 97.5 ± 2.7% | 92.4 ± 1.4% | 97 ± 4.5% | 91.7 ± 5.5% | 94.5 ± 8.6% | 95.4 ± 4.1% | 92.1 ± 6.5% | 106 ± 9.1% | 107 ± 7.4% | 95.05 ± 0.49% | 102 ± 3.6% | 95 ± 3.5%
14 | CC1Sc2c(C(=O)O)c(=O)c3cc(F)c(N4CCNCC4)cc3n21 (stereo not given) [ulifloxacin] | > 10 µM | > 10 µM | > 10 µM | > 10 µM | > 10 µM | 0.7 | 0 | 0.5 | 0 | 0 | 112% | 98.9% | 86.5% | 98.2% | 78.9% | 95.8% | 124% | 107% | 108% | 104% | 99.1% | 101% | 98.2% | 97.9% | 83.8% | 96.5% | 95.9% | 109% | 104% | 90.5% | 116% | 95.3% | 94% | 106% | 102%
15 | CNCCC=C1c2ccccc2C=Cc2ccccc21 [norcyclobenzaprine] | > 10 µM | > 10 µM | > 10 µM | > 10 µM | > 10 µM | 0 | 0 | 0 | 0 | 0.1 | 94.7% | 93.4% | 102% | 98.3% | 89.3% | 94.2% | 96.4% | 97.7% | 102% | 90.5% | 102% | 98.1% | 100% | 106% | 100% | 95.9% | 97.5% | 92.6% | 94.5% | 95.2% | 109% | 96.6% | 103% | 105% | 84.8%

— the supplement of paper PMC13380429
